Some test systems named below: CAKI-1 renal; HS 578T breast; BT-549 breast; RPMI-8226 leukemia; MCF7 breast; UACC-257 melanoma; HL-60(TB) leukemia; MDA-MB-435; MOLT-4 leukemia; ACHN renal.
Holding throughout (test): inhibition of tumour cell growth, NCI panel, 48 h

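Following 48 hours of exposure in 96-well plates, responses at five concentrations were used to interpolate endpoints linearly. At the TGI there is no net growth.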

On to `NC(=S)N1N=C(c2ccc3c(c2)CCC3)CC1c1ccccc1` (stereo not given), for which the TGI is more than 100 µM in the experiment with CAKI-1 renal; more than 100 µM in the experiment on HS 578T breast; 98.3 µM in the experiment on BT-549 breast; 51.7 µM in the experiment on RPMI-8226 leukemia; 45.2 µM in the experiment on MCF7 breast; 86.9 µM with UACC-257 melanoma. Further, the TGI in the experiment on HL-60(TB) leukemia is 44.5 µM; with MDA-MB-435 it was 96.9 µM; in the experiment with MOLT-4 leukemia, more than 100 µM; in the experiment on ACHN renal it was more than 100 µM.
On to `Cc1nc2ccccc2n1CCc1nc2ccccc2[nH]1`, for which the TGI with CAKI-1 renal, with HS 578T breast, with BT-549 breast, in the experiment on RPMI-8226 leukemia, with MCF7 breast and in the experiment on UACC-257 melanoma was more than 100 µM in each case. Also, the TGI in the experiment with HL-60(TB) leukemia, in the experiment with MDA-MB-435, in the experiment on MOLT-4 leukemia and in the experiment with ACHN renal was more than 100 µM each time.
`Cc1cc(C(C)(C)C)c(OCCCN2CCOCC2)c(C(C)(C)C)c1`: the TGI with CAKI-1 renal came out at 34.5 µM; in the experiment with HS 578T breast it was 38.6 µM; in the experiment with BT-549 breast, 31.9 µM; in the experiment with RPMI-8226 leukemia, 34.8 µM; in the experiment with MCF7 breast it was 33.6 µM; with UACC-257 melanoma it was 32 µM. In addition, the TGI with HL-60(TB) leukemia stood at 29 µM; with MDA-MB-435, 38.2 µM; with MOLT-4 leukemia, 33.7 µM; in the experiment on ACHN renal, 31.2 µM.
As for `OCC1=C[C@@](COCc2ccccc2)(OCc2ccccc2)[C@@H](OCc2ccccc2)[C@@H]1OCc1ccccc1`, the TGI in the experiment on CAKI-1 renal came out at 45.1 µM; in the experiment on HS 578T breast, 87.6 µM; with BT-549 breast it was 98.1 µM; with RPMI-8226 leukemia it was 7.33 µM; in the experiment on MCF7 breast it was 23.8 µM; with UACC-257 melanoma, 67.6 µM. For the same compound, the TGI in the experiment with HL-60(TB) leukemia is 65.9 µM; in the experiment on MDA-MB-435 it was 27.4 µM; in the experiment on MOLT-4 leukemia, 8.89 µM; in the experiment on ACHN renal, more than 100 µM.
Regarding `CC1(C)CN=C(c2ccc3ccccc3c2O)N1`, the TGI with CAKI-1 renal, in the experiment on HS 578T breast, in the experiment on BT-549 breast, in the experiment on RPMI-8226 leukemia, in the experiment with MCF7 breast and with UACC-257 melanoma was more than 100 µM in each case. Also, the TGI in the experiment on HL-60(TB) leukemia, in the experiment on MDA-MB-435, with MOLT-4 leukemia and in the experiment on ACHN renal was more than 100 µM each time.
`Cc1ccc2c(=O)c3c(O)c4c(cc3n(C)c2c1)OC(C)(C)C=C4`: the TGI with CAKI-1 renal, in the experiment on HS 578T breast, in the experiment on BT-549 breast, with RPMI-8226 leukemia, in the experiment on MCF7 breast and in the experiment on UACC-257 melanoma was more than 10 µM in each case. Also, the TGI with HL-60(TB) leukemia, with MDA-MB-435, in the experiment with MOLT-4 leukemia and with ACHN renal was more than 10 µM in each case.
For `NC(=O)Nc1n[nH]c(-c2ccccc2)n1`, the TGI in the experiment on CAKI-1 renal, in the experiment with HS 578T breast, with BT-549 breast, with RPMI-8226 leukemia, with MCF7 breast and in the experiment on UACC-257 melanoma was more than 100 µM each time. Further, the TGI with HL-60(TB) leukemia, in the experiment on MDA-MB-435, in the experiment on MOLT-4 leukemia and in the experiment on ACHN renal was more than 100 µM in each case.
`O=c1[nH]nc(Cc2ccc([N+](=O)[O-])cc2)[nH]1`: the TGI with CAKI-1 renal, in the experiment on HS 578T breast, in the experiment on BT-549 breast, in the experiment on RPMI-8226 leukemia, in the experiment on MCF7 breast and in the experiment on UACC-257 melanoma was more than 100 µM in each case. In addition, the TGI in the experiment on HL-60(TB) leukemia, in the experiment with MDA-MB-435, in the experiment with MOLT-4 leukemia and in the experiment with ACHN renal was more than 100 µM each time.
As for `O=C(O)c1cc2c(cc1CC(Cc1ccccc1)C(=O)O)CCC2` (stereo not given), the TGI with CAKI-1 renal, in the experiment on HS 578T breast, in the experiment on BT-549 breast, in the experiment on RPMI-8226 leukemia, with MCF7 breast and in the experiment with UACC-257 melanoma was more than 100 µM throughout. Moreover, the TGI in the experiment with HL-60(TB) leukemia, in the experiment with MDA-MB-435, in the experiment with MOLT-4 leukemia and with ACHN renal was more than 100 µM each time.
In the case of `CCCNC(=O)Cn1c(-c2ccccc2)cc2ccccc21`, the TGI with CAKI-1 renal, with HS 578T breast, with BT-549 breast, in the experiment on RPMI-8226 leukemia, in the experiment with MCF7 breast and in the experiment with UACC-257 melanoma was more than 100 µM each time. Moreover, the TGI with HL-60(TB) leukemia, in the experiment on MDA-MB-435, with MOLT-4 leukemia and in the experiment with ACHN renal was more than 100 µM in each case.
Regarding `CC(CN(C)C)C(O)(c1ccccc1)c1ccccc1` (stereo not given), the TGI in the experiment on CAKI-1 renal, in the experiment on HS 578T breast, in the experiment with BT-549 breast, with RPMI-8226 leukemia, in the experiment on MCF7 breast and in the experiment on UACC-257 melanoma was more than 100 µM in each case. Besides, the TGI with HL-60(TB) leukemia, in the experiment on MDA-MB-435, in the experiment with MOLT-4 leukemia and in the experiment on ACHN renal was more than 100 µM each time.
`CCOC(=O)c1c(C)n(CCN2CCN(C)CC2)c2ccc(OC)cc12`: the TGI was more than 100 µM in the experiment on CAKI-1 renal; more than 100 µM in the experiment with HS 578T breast; more than 100 µM in the experiment with BT-549 breast; 49.6 µM with RPMI-8226 leukemia; more than 100 µM in the experiment with MCF7 breast; 31.1 µM in the experiment with UACC-257 melanoma. The TGI with HL-60(TB) leukemia was 58 µM; with MDA-MB-435 it was 56.2 µM; with MOLT-4 leukemia it was 68 µM; with ACHN renal it was more than 100 µM.
`COc1cc(/C=C2\N=C(c3ccccc3)N(c3ccc(C(=O)c4ccccc4)cc3N3C(=O)/C(=C/c4cc(OC)c(OC)c(OC)c4)N=C3c3ccccc3)C2=O)cc(OC)c1OC`: the TGI is more than 100 µM in the experiment with CAKI-1 renal; 74.8 µM in the experiment on HS 578T breast; 66.4 µM in the experiment on BT-549 breast; more than 100 µM with RPMI-8226 leukemia; 42.1 µM in the experiment with MCF7 breast; 33.4 µM in the experiment on UACC-257 melanoma. The TGI with HL-60(TB) leukemia was found to be 15.5 µM; in the experiment with MDA-MB-435 it was 18.5 µM; in the experiment on MOLT-4 leukemia it was 39.6 µM; with ACHN renal, 66 µM.
In the case of `COc1ccc(/C=C(\C#N)c2nc(-c3cc4ccccc4oc3=O)cs2)cc1`, the TGI was more than 100 µM in the experiment on CAKI-1 renal; more than 100 µM with HS 578T breast; 30.3 µM in the experiment on BT-549 breast; more than 100 µM with RPMI-8226 leukemia; more than 100 µM in the experiment on MCF7 breast; more than 100 µM in the experiment with UACC-257 melanoma. Further, the TGI with HL-60(TB) leukemia was more than 100 µM; in the experiment with MDA-MB-435 it was more than 100 µM; with MOLT-4 leukemia it was more than 100 µM; with ACHN renal it was 42.2 µM.
In the case of `CCOc1cc(C=Nc2ccc(Oc3ccc(Cl)cc3)c(Cl)c2)ccc1O`, the TGI with CAKI-1 renal was 59.4 µM; in the experiment on HS 578T breast it was 45.4 µM; with BT-549 breast it was 52 µM; in the experiment with RPMI-8226 leukemia it was 82.8 µM; with MCF7 breast, more than 100 µM; in the experiment with UACC-257 melanoma, 80.8 µM. Moreover, the TGI in the experiment with HL-60(TB) leukemia was 57.4 µM; with MDA-MB-435 it was more than 100 µM; with MOLT-4 leukemia it was 67.3 µM; with ACHN renal, more than 100 µM.
In the case of `NC(Cc1ccccc1)C(=O)O` (stereo not given), the TGI in the experiment on CAKI-1 renal, with HS 578T breast, in the experiment on BT-549 breast, in the experiment on RPMI-8226 leukemia, in the experiment on MCF7 breast and in the experiment with UACC-257 melanoma was more than 100 µM in each case. Moreover, the TGI with HL-60(TB) leukemia, in the experiment with MDA-MB-435, with MOLT-4 leukemia and with ACHN renal was more than 100 µM in each case.
With `C=C(Cl)C(=C)CCC(Cl)C(C)(C)Cl` (stereo not given), the TGI with CAKI-1 renal, in the experiment with HS 578T breast, with BT-549 breast, with RPMI-8226 leukemia, with MCF7 breast and with UACC-257 melanoma was more than 100 µM each time. The TGI in the experiment on HL-60(TB) leukemia, with MDA-MB-435, with MOLT-4 leukemia and with ACHN renal was more than 100 µM throughout.
As to `O=C(NC(Cc1c[nH]c2ccccc12)C(=O)O)/C(=C/c1ccccc1)NC(=O)c1ccccc1` (stereo not given), the TGI with CAKI-1 renal, with HS 578T breast, in the experiment with BT-549 breast, in the experiment on RPMI-8226 leukemia, in the experiment with MCF7 breast and in the experiment with UACC-257 melanoma was more than 100 µM in each case. Moreover, the TGI in the experiment with HL-60(TB) leukemia, in the experiment with MDA-MB-435, with MOLT-4 leukemia and with ACHN renal was more than 100 µM throughout.
Consider `CC(C)(CN1CCCCC1)C(=O)CC(SCCS(=O)(=O)O)c1ccc(Cl)c(Cl)c1` (stereo not given), for which the TGI with CAKI-1 renal came out at 12.9 µM; in the experiment on HS 578T breast it was 7 µM; with BT-549 breast, 13 µM; in the experiment with RPMI-8226 leukemia, 7.03 µM; in the experiment on MCF7 breast, 15.3 µM; with UACC-257 melanoma it was 20.8 µM. In addition, the TGI in the experiment on HL-60(TB) leukemia was 5.63 µM; in the experiment with MDA-MB-435 it was 4.57 µM; with MOLT-4 leukemia it was 8.06 µM; in the experiment with ACHN renal, 9.03 µM.
Consider `C=C1C[C@]23CC[C@@H]4C(CO)(CO)CC(=O)C[C@]4(C)[C@@H]2C(O)C[C@H]1C3` (stereo not given in full), for which the TGI in the experiment with CAKI-1 renal, with HS 578T breast, in the experiment with BT-549 breast, with RPMI-8226 leukemia, with MCF7 breast and with UACC-257 melanoma was more than 100 µM each time. For the same compound, the TGI in the experiment on HL-60(TB) leukemia, in the experiment on MDA-MB-435, with MOLT-4 leukemia and in the experiment on ACHN renal was more than 100 µM each time.
As to `CCCCCCCCCCCOCCC1C(C(C)OCCN2CCCC2)OC2OC(C)(C)OC21` (stereo not given), the TGI in the experiment with CAKI-1 renal is 6.52 µM; in the experiment with HS 578T breast, 6.93 µM; with BT-549 breast, 7.76 µM; with RPMI-8226 leukemia, 3.17 µM; in the experiment on MCF7 breast, 6.58 µM; in the experiment on UACC-257 melanoma, 3.78 µM. Also, the TGI in the experiment on HL-60(TB) leukemia came out at 3.36 µM; in the experiment with MDA-MB-435, 3.51 µM; in the experiment on MOLT-4 leukemia, 5.93 µM; in the experiment with ACHN renal, 10.8 µM.
Turning to `Cc1nc(-c2ccc(Cl)cc2)cn2c1nc1ccccc12`, the TGI in the experiment on CAKI-1 renal, with HS 578T breast, with BT-549 breast, in the experiment with RPMI-8226 leukemia, in the experiment with MCF7 breast and in the experiment with UACC-257 melanoma was more than 100 µM throughout. The TGI with HL-60(TB) leukemia is more than 31.6 µM; in the experiment with MDA-MB-435 it was more than 100 µM; in the experiment with MOLT-4 leukemia, more than 100 µM; with ACHN renal, more than 100 µM.
Take `COc1ccc(C2=C(N)c3ccccc3C2=O)cc1`: the TGI in the experiment with CAKI-1 renal is more than 100 µM; in the experiment with HS 578T breast, 63.9 µM; with BT-549 breast, more than 100 µM; in the experiment with RPMI-8226 leukemia, more than 100 µM; with MCF7 breast it was more than 100 µM; in the experiment with UACC-257 melanoma, more than 100 µM. Besides, the TGI with HL-60(TB) leukemia, in the experiment with MDA-MB-435, in the experiment with MOLT-4 leukemia and in the experiment on ACHN renal was more than 100 µM throughout.

For the origin of these results see PubChem BioAssay (NCI).
